Experimental findings from patent publication US20240092791A1, “DIHYDROFUROPYRIDINE DERIVATIVES AS RHO-KINASE INHIBITORS” (CHIESI FARMACEUTICI S.P.A., priority 2020, published 2024) are described below.

A value given as a limit tells only on which side of the number the result lay.

One assay has as its target Rho kinase 2 (ROCK2) (Homo sapiens, UniProt O75116). As to the kind of experiment: In vitro inhibitory activity assay ROCK2 (ADP-Glo). It is filed as biochemical. The conditions noted are these: ATP 200 μM, Cheng-Prusoff from IC50; read-out: ROCK2 (Ki, range of activity). On the procedure: (§1) The effectiveness of compounds of the present invention to inhibit Rho kinase activity can be determined in a 10 μl assay containing 40 mM Tris pH7.5, 20 mM MgCl2 0.1 mg/mL BSA, 50 μM DTT and 2.5 μM peptide substrate (Myelin Basic Protein) using an ADP-Glo kit (Promega). Compounds were dissolved in DMSO such that the final concentration of DMSO was 1% in the assay. All reactions/incubations are performed at 25° C. Compound (2 ul) and either Rho kinase 1 or 2 (4 μl) were mixed and incubated for 30 mins. Reactions were initiated by addition of ATP (4μ1) such that the final concentration of ATP in the assay was 200 μM. After a 1 hour incubation 10 μl of ADP-Glo Reagent was added and after a further 1 hour incubation 20 ul of Kinase Detection Buffer was added and the mixture incubated for a further 45 minutes. The luminescent signal was measured on a luminometer. […] Compounds were tested in dose-response format and the inhibition of kinase activity was calculated at each concentration of compound. To determine the IC50 (concentration of compound required to inhibit 50% of the enzyme activity) data were fit to a plot of % inhibition vs Log10 compound concentration using a sigmoidal fit with a variable slope and fixing the maximum to 100% and the minimum to 0%. To determine the Ki values the Cheng-Prusoff equation was utilized (Ki=IC50/(1+[S]/Km).
(ADP-Glo turns the ADP formed in a reaction into a luminescent signal.)

The target of the next assay is Rho kinase 1 (ROCK1) (Homo sapiens, UniProt Q13464). Kind of assay: In vitro inhibitory activity assay ROCK1 (ADP-Glo). To be noted: ATP 200 μM, Cheng-Prusoff from IC50; read-out: ROCK 1 (Ki, range of activity). Type of assay: biochemical. The protocol:
as §1

Another assay addresses PKA (Homo sapiens, UniProt P17612). As to the kind of experiment: In vitro inhibitory activity assay for PKA (ADP-Glo), reported as selectivity ratio vs ROCK2. Type of assay: biochemical. To be noted: Ki value for PKA divided by Ki value of ROCK2. On the procedure: The effectiveness of compounds of the present invention to inhibit PKA activity can be determined in a 10 μl assay containing 40 mM Tris pH7.5, 20 mM MgCl2 0.1 mg/ml BSA, 50 μM DTT and 260 μM peptide substrate (kemptide) using an ADP-Glo kit (Promega). Compounds were dissolved in DMSO such that the final concentration of DMSO was 1% in the assay. All reactions/incubations are performed at 25° C. Compound and PKA enzyme (6 μl) were mixed and incubated for 30 mins. Reactions were initiated by addition of ATP (4 μl ) such that the final concentration of ATP in the assay was 10 μM. After a 30 minute incubation 10 μl of ADP-Glo Reagent was added and after a further 1 hour incubation 20 μl of Kinase Detection Buffer was added and the mixture incubated for a further 45 minutes. The luminescent signal was measured on a luminometer. […] Compounds were tested in dose-response format and the inhibition of kinase activity was calculated at each concentration of compound. To determine the IC50 (concentration of compound required to inhibit 50% of the enzyme activity) data were fit to a plot of % inhibition vs Logio compound concentration using a sigmoidal fit with a variable slope and fixing the maximum to 100% and the minimum to 0%. To determine the Ki values the Cheng-Prusoff equation was utilized (Ki=IC50/(1+[S]/Km).
In vitro inhibitory activities for PKA were reported as selectivity ratio vs. ROCK-2.

The test system of assay [1] is cch-evoked bronchoconstriction. Kind of assay: Experimental bronchospasm (carbachol-induced bronchoconstriction, Konzett & Roessler). It is filed as in vivo, Male CD Sprague Dawley rats. To be noted: iv, rat, 1 hour after administration, carbachol 80 μg/kg i.v., read-out: Inhibition % (±s.e. mean) of cch-evoked bronchoconstriction; for inhibition in vivo at 0.01 mg/kg: dose 10 μg/Kg intratracheal. The protocol: Male CD Sprague Dawley rats (220-250 g) were purchased from Charles River Laboratories Italy (Calco, Lecco). Prior to use animals were acclimated for at least 5 days 20 to the local vivarium conditions (room temperature: 20-24° C.; relative humidity: 40-70%), having free access to standard rat chow and softened tap water. All the procedures were performed in animal operating rooms according to ethical guidelines for the conduct of animal research (D. L.vo 116/92).
Rats were anaesthetized with a combination of anesthetics (Zoletil 20 mg/kg+Xylazine 5 mg/kg, ip) for the i.t. administration. A laryngoscope was moved forward into the mouth to visualize the trachea and guide the insertion of the tip of a custom-made small diameter cannula directly into the trachea and located 1-2 mm above the bifurcation.
In order to assess the residual inhibitory activity of test compounds 1 hour after their administration, rats were surgically prepared. Body temperature was kept constant at 37° C. by a heated blanket.
The trachea was cannulated and the lungs were ventilated artificially with a constant volume ventilator (rodent ventilator mod. 7025, Ugo Basile, Comerio, Varese, Italy) at a frequency of 80 strokes/min and at a tidal volume of 10 ml/kg. To avoid spontaneous breathing, the animals were injected intravenously (i.v.) with pancuronium bromide (2 mg/kg).
Bronchoconstriction was induced by the i.v. injection of carbachol (cch) 80 μg/kg. In control experiments, repeated injections of this dose produced reproducible short-lasting (1-2 min duration) bronchospasms. Bronchoconstriction, quantified as a reduction of tidal volume, was evaluated according to the method described by Konzett & Roessler (1). Systemic blood pressure and changes in airway resistance were monitored with a digital pressure transducer.
After stabilisation of artificial breathing and blood pressure, animals were injected (i.v.) with cch every 3 min, until 3 stable and reproducible basal responses were obtained. […] The effect of test compounds was 15 expressed as % inhibition of cch-evoked bronchoconstriction in time-matched, vehicle-treated, animals (controls).
Tested compounds were dissolved in dH2O and 1% Tween-80 or 0,001% HCl and further diluted to target concentrations. Tested compounds were instilled locally into the trachea in a volume of 125 μl.
All data are presented as mean±s.e.mean. The % inhibition of experimental bronchospasm was calculated comparing the drug-treated with the vehicle-treated control animals. Data analysis was performed using GraphPad Prism software.

Rho kinase 2 (ROCK2), sequence (O75116 whole entry): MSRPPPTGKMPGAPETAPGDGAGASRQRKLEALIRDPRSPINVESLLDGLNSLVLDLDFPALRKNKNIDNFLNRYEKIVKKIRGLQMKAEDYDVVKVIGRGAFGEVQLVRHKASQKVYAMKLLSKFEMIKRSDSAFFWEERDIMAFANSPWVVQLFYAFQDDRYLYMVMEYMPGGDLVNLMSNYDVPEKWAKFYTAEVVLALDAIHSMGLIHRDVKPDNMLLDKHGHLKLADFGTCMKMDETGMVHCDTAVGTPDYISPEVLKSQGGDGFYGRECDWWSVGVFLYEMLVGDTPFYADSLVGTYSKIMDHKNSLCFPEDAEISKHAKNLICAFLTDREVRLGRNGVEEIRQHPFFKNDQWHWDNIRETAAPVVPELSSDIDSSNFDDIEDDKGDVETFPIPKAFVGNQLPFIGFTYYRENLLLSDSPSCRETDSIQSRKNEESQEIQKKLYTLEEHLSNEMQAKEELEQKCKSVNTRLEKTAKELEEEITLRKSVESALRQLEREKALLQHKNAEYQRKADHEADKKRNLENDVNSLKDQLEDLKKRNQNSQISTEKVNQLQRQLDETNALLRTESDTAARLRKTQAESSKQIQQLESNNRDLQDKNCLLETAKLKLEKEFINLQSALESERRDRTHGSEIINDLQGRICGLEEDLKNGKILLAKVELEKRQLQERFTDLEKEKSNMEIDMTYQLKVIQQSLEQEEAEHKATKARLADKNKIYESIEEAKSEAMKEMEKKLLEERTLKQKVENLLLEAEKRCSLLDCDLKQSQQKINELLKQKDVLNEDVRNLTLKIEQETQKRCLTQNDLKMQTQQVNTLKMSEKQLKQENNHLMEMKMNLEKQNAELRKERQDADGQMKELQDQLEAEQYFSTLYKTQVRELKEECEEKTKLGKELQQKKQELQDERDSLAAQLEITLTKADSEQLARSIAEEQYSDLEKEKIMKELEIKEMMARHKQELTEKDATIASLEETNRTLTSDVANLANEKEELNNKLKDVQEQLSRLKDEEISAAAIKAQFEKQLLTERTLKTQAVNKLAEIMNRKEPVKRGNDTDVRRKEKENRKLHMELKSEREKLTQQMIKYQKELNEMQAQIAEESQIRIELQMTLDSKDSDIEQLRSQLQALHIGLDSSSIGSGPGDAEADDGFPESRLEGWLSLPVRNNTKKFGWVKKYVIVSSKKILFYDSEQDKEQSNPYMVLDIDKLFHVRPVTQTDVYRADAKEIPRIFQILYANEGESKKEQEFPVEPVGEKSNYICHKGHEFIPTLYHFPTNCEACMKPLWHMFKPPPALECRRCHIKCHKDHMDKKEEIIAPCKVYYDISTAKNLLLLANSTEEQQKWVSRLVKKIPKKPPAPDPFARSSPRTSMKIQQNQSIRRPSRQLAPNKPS
Rho kinase 1 (ROCK1), sequence (Q13464 whole entry): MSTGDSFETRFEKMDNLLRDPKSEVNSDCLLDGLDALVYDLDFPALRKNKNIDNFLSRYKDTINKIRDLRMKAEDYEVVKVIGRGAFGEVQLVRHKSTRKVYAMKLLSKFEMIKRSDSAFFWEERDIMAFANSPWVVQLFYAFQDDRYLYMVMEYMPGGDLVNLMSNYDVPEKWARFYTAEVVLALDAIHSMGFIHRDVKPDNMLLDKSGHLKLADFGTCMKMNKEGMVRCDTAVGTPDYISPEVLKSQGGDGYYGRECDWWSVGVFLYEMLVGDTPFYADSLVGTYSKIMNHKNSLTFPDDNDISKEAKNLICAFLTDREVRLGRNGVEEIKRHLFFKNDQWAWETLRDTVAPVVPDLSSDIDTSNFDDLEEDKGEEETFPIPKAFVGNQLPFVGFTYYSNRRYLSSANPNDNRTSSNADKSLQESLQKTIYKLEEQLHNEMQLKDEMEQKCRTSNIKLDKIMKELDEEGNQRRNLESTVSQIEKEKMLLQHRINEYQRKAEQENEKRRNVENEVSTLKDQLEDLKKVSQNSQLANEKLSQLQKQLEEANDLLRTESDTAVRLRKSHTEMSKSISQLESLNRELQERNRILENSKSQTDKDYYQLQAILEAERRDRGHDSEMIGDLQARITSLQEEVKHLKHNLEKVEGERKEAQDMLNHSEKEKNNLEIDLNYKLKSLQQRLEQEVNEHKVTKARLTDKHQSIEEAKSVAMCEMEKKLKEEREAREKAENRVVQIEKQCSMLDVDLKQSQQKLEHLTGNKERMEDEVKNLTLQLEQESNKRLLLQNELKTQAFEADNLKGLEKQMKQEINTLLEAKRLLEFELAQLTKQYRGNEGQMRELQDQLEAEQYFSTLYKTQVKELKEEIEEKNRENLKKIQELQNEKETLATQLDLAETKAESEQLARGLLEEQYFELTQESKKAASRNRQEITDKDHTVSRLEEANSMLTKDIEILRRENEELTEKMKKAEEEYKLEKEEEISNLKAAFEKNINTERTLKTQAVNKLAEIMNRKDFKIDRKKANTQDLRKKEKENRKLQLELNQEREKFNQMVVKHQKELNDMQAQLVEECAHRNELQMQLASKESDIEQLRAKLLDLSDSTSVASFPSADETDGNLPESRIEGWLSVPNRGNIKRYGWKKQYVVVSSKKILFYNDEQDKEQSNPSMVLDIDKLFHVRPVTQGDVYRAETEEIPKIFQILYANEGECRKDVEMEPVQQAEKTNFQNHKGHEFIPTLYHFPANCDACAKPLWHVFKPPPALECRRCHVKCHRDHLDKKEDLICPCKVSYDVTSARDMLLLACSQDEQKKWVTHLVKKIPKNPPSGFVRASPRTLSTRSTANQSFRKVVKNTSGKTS

As to `CNC(=O)c1cccc(CNc2ncc(-c3ccnc(N)n3)c3c2OCC3)c1` [Example B, 3-(((4-(2-aminopyrimidin-4-yl)-2,3-dihydrofuro[2,3-c]pyridin-7-yl)amino)methyl)-N-methylbenzamide, reference compound], the Ki on Rho kinase 2 (ROCK2) and on Rho kinase 1 (ROCK1) was more than 30 nM throughout. The “Ratio (PKA/ROCK2)” value at PKA is reported as “*** (ratio≥10)”.

In the case of `CN1C[C@@H]2C[C@H]1CN2c1ccc(NC(=O)c2cccc(CNc3ncc(-c4ccnc(N)n4)c4c3CCO4)c2)nc1` [Example 76, 3-(((7-(2-aminopyrimidin-4-yl)-2,3-dihydrofuro[3,2-c]pyridin-4-yl)amino)methyl)-N-(5-((1S,4S)-5-methyl-2,5-diazabicyclo[2.2.1]heptan-2-yl)pyridin-2-yl)benzamide], the Ki at Rho kinase 2 (ROCK2) and at Rho kinase 1 (ROCK1) was not above 3 nM throughout. Besides, the “Ratio (PKA/ROCK2)” value on PKA is recorded as “** (5≤ratio<10)”.

For the compound `CN1CC[C@@H]1COc1ccc(NC(=O)c2cccc(CNc3ncc(-c4ccnc(N)n4)c4c3CCO4)c2)nc1` [Example 81, (R)-3-(((7-(2-aminopyrimidin-4-yl)-2,3-dihydrofuro[3,2-c]pyridin-4-yl)amino)methyl)-N-(5-((1-methylazetidin-2-yl)methoxy)pyridin-2-yl)benzamide], the Ki at Rho kinase 2 (ROCK2) and at Rho kinase 1 (ROCK1) was not above 3 nM throughout. Also, in assay [1], the inhibition in vivo at 0.01 mg/kg is 81.3 ± 7.9%.

`Nc1nccc(-c2cnc(NCc3ccccc3)c3c2OCC3)n1` [Example C, 7-(2-Aminopyrimidin-4-yl)-N-benzyl-2,3-dihydrofuro[3,2-c]pyridin-4-amine, reference compound]: the figures for the Ki at Rho kinase 2 (ROCK2) and at Rho kinase 1 (ROCK1) were 3 to 30 nM and more than 30 nM, respectively. Further, the “Ratio (PKA/ROCK2)” value on PKA is “* (ratio<5)”.

On to `CN(C)CCOc1ccc(NC(=O)c2cccc(CNc3ncc(-c4ccnc(N)n4)c4c3CCO4)c2)nc1` [Example 52, 3-(((7-(2-aminopyrimidin-4-yl)-2,3-dihydrofuro[3,2-c]pyridin-4-yl)amino)methyl)-N-(5-(2-(dimethylamino)ethoxy)pyridin-2-yl)benzamide], for which the Ki at Rho kinase 2 (ROCK2) and on Rho kinase 1 (ROCK1) was not above 3 nM throughout. Also, the inhibition in vivo at 0.01 mg/kg in assay [1] came to 51.5 ± 6.2%. Further, at PKA, the “Ratio (PKA/ROCK2)” value was “*** (ratio≥10)”.

With `Nc1nccc(-c2cnc(NCc3cccc(C(=O)Nc4ccc(N5CCNCC5)cn4)c3)c3c2OCC3)n1` [Example 53, 3-(((7-(2-aminopyrimidin-4-yl)-2,3-dihydrofuro[3,2-c]pyridin-4-yl)amino)methyl)-N-(5-(piperazin-1-yl)pyridin-2-yl)benzamide], the Ki at Rho kinase 2 (ROCK2) and at Rho kinase 1 (ROCK1) was not above 3 nM in each case. For the same compound, the inhibition in vivo at 0.01 mg/kg in assay [1] is 70.7 ± 3.4%. The “Ratio (PKA/ROCK2)” value on PKA was “*** (ratio≥10)”.

Turning to `CN1CCN(C)C(COc2ccc(NC(=O)c3cccc(CNc4ncc(-c5ccnc(N)n5)c5c4CCO5)c3)nc2)C1` (single isomer, unassigned) [Example 83, 3-(((7-(2-aminopyrimidin-4-yl)-2,3-dihydrofuro[3,2-c]pyridin-4-yl)amino)methyl)-N-(5-((1,4-dimethylpiperazin-2-yl)methoxy)pyridin-2-yl)benzamide], the Ki at Rho kinase 2 (ROCK2) and on Rho kinase 1 (ROCK1) was not above 3 nM each time. Also, in assay [1] (dose 3 μg/Kg intratracheal), the inhibition in vivo at 0.003 mg/kg amounted to 53.3 ± 4.6%. The “Ratio (PKA/ROCK2)” value at PKA was “*** (ratio≥10)”.

With `C[C@@H]1CN[C@@H](C)CN1c1ccc(NC(=O)c2cccc(CNc3ncc(-c4ccnc(N)n4)c4c3CCO4)c2)nc1` [Example 67], the Ki at Rho kinase 2 (ROCK2) and on Rho kinase 1 (ROCK1) was not above 3 nM throughout. In addition, the “Ratio (PKA/ROCK2)” value on PKA is “*** (ratio≥10)”.

Regarding `Nc1nccc(-c2cnc(NCc3cccc(C(=O)Nc4ccc(N5C[C@H]6C[C@@H]5CN6)cn4)c3)c3c2OCC3)n1` [Example 68, N-(5-((1R,4R)-2,5-diazabicyclo[2.2.1]heptan-2-yl)pyridin-2-yl)-3-(((7-(2-aminopyrimidin-4-yl)-2,3-dihydrofuro[3,2-c]pyridin-4-yl)amino)methyl)benzamide], the Ki at Rho kinase 2 (ROCK2) and at Rho kinase 1 (ROCK1) was not above 3 nM throughout. The “Ratio (PKA/ROCK2)” value at PKA is reported as “*** (ratio≥10)”.

Consider `CN1CCC(C(=O)N2CCN(c3ccc(NC(=O)c4cccc(CNc5ncc(-c6ccnc(N)n6)c6c5CCO6)c4)nc3)CC2)CC1` [Example 65, 3-(((7-(2-aminopyrimidin-4-yl)-2,3-dihydrofuro[3,2-c]pyridin-4-yl)amino)methyl)-N-(5-(4-(1-methylpiperidine-4-carbonyl)piperazin-1-yl)pyridin-2-yl)benzamide], for which the Ki at Rho kinase 2 (ROCK2) and at Rho kinase 1 (ROCK1) was not above 3 nM each time. Besides, the “Ratio (PKA/ROCK2)” value on PKA is “*** (ratio≥10)”.

On to `CN(C)CCN(C)c1ccc(NC(=O)c2cccc(CNc3ncc(-c4ccnc(N)n4)c4c3CCO4)c2)nc1` [Example 75, 3-(((7-(2-aminopyrimidin-4-yl)-2,3-dihydrofuro[3,2-c]pyridin-4-yl)amino)methyl)-N-(5-((2-(dimethylamino)ethyl)(methyl)amino)pyridin-2-yl)benzamide], for which the Ki at Rho kinase 2 (ROCK2) and on Rho kinase 1 (ROCK1) was not above 3 nM in each case. The “Ratio (PKA/ROCK2)” value at PKA is “*** (ratio≥10)”.

Turning to `Nc1nccc(-c2cnc(NCc3cccc(C(=O)Nc4ccc(N5CCCNCC5)cn4)c3)c3c2OCC3)n1` [Example 72, N-(5-(1,4-diazepan-1-yl)pyridin-2-yl)-3-(((7-(2-aminopyrimidin-4-yl)-2,3-dihydrofuro[3,2-c]pyridin-4-yl)amino)methyl)benzamide], the Ki on Rho kinase 2 (ROCK2) and on Rho kinase 1 (ROCK1) was not above 3 nM each time. Also, the “Ratio (PKA/ROCK2)” value on PKA is reported as “*** (ratio≥10)”.

As for `CNC(=O)c1cccc(CNc2ncc(-c3ccncn3)c3c2CCO3)c1` [Example A, N-Methyl-3-(((7-(pyrimidin-4-yl)-2,3-dihydrofuro[3,2-c]pyridin-4-yl)amino)methyl)benzamide, reference compound], the Ki on Rho kinase 2 (ROCK2) and at Rho kinase 1 (ROCK1) was more than 30 nM throughout. The “Ratio (PKA/ROCK2)” value at PKA was “** (5≤ratio<10)”.
